8 compounds from PubChem BioAssay (NCI) can be followed below.

Molecules are shown by their SMILES.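 Step 1: Grow cells in 96-well plates. Step 2: Expose to compound for 48 hours at 5 concentrations. Step 3: Interpolate endpoints linearly; if unreached, use highest concentration. The concentration for full growth arrest is given as TGI.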 Where a SMILES comes first, the peptide text is derived from it. [ ]: non-standard residue; d: D form. The star is where a group is joined. Phe(4-NO2) = N[CH](Cc1ccc([N+](=O)[O-])cc1)C(=O)O; Cbz = O=C(OCc1ccccc1)* Where only a bound is given, the exact number is not on record here.

Among the test systems are OVCAR-5 ovarian; SW-620 colon; EKVX NSCLC; UACC-62 melanoma; K-562 leukemia; RXF 393 renal; NCI-H23 lung; TK-10 renal; HL-60(TB) leukemia; NCI-H460 lung; HOP-62 NSCLC; NCI/ADR-RES ovarian; HOP-92 NSCLC; A498 renal; OVCAR-8 ovarian; PC-3 prostate; SNB-19 CNS; A549 NSCLC; T-47D breast; BT-549 breast.
Experiment in all cases: NCI anticancer screen, dose series, 48 h

With `CCN1CCN(c2nc3ccccc3nc2C(=O)c2ccc(OC)cc2)CC1`, the TGI in the test on OVCAR-5 ovarian was greater than 100 µM; in the test on SW-620 colon it was greater than 100 µM; in the test with EKVX NSCLC, greater than 100 µM; in the test on UACC-62 melanoma it was 45 µM; in the test with K-562 leukemia, greater than 100 µM; in the test with RXF 393 renal, 43.5 µM. Further, the TGI in the test with NCI-H23 lung is greater than 100 µM; in the test with TK-10 renal, 70.4 µM; with HL-60(TB) leukemia it was greater than 100 µM; with NCI-H460 lung it was greater than 100 µM; in the test on HOP-62 NSCLC it was 55.5 µM; with NCI/ADR-RES ovarian, greater than 100 µM. For the same compound, the TGI with HOP-92 NSCLC, in the test on A498 renal, with OVCAR-8 ovarian, in the test on PC-3 prostate, in the test with SNB-19 CNS and in the test on A549 NSCLC was greater than 100 µM throughout. The same compound had a TGI in the test on T-47D breast greater than 100 µM.

In the case of `CC1=CC=C2c3ccccc3C=CN2C(=O)C1`, the TGI with OVCAR-5 ovarian, with SW-620 colon, in the test with EKVX NSCLC, in the test on UACC-62 melanoma, in the test on K-562 leukemia and with NCI-H23 lung was greater than 100 µM in each case. The TGI is 84.9 µM in the test on TK-10 renal; 41.2 µM with HL-60(TB) leukemia; greater than 100 µM with NCI-H460 lung; greater than 100 µM in the test with HOP-62 NSCLC; 56.3 µM with BT-549 breast; greater than 100 µM in the test on NCI/ADR-RES ovarian. Also, the TGI in the test on OVCAR-8 ovarian, in the test with PC-3 prostate, with SNB-19 CNS, in the test on A549 NSCLC and in the test with T-47D breast was greater than 100 µM in each case.

For the compound `Cc1nn2c(=O)c([N+](=O)[O-])c(/C=C/c3ccco3)nc2s1`, the TGI in the test on OVCAR-5 ovarian is greater than 100 µM; in the test with SW-620 colon, greater than 100 µM; in the test on EKVX NSCLC it was 63.7 µM; in the test with UACC-62 melanoma, greater than 100 µM; in the test on K-562 leukemia, greater than 100 µM; in the test with RXF 393 renal it was greater than 100 µM. In addition, the TGI was greater than 100 µM with NCI-H23 lung; greater than 100 µM in the test with TK-10 renal; 96.2 µM with HL-60(TB) leukemia; greater than 100 µM in the test with NCI-H460 lung; greater than 100 µM in the test with HOP-62 NSCLC; greater than 100 µM in the test on BT-549 breast. The TGI in the test with NCI/ADR-RES ovarian, in the test on HOP-92 NSCLC, in the test with OVCAR-8 ovarian, in the test on PC-3 prostate, in the test with SNB-19 CNS and in the test on A549 NSCLC was greater than 100 µM each time. For the same compound, in the test on T-47D breast, the TGI is greater than 100 µM.

With `COc1cccc(C(=O)Nc2c3ccccc3nc3ccccc23)c1OC`, the TGI with OVCAR-5 ovarian was greater than 100 µM; in the test with SW-620 colon, greater than 100 µM; in the test on EKVX NSCLC, greater than 100 µM; with UACC-62 melanoma, greater than 100 µM; in the test with K-562 leukemia, greater than 100 µM; in the test with RXF 393 renal, 72.2 µM. Also, the TGI in the test on NCI-H23 lung, in the test with TK-10 renal, in the test on HL-60(TB) leukemia, in the test with NCI-H460 lung, in the test on HOP-62 NSCLC and in the test with BT-549 breast was greater than 100 µM throughout. Moreover, the TGI with NCI/ADR-RES ovarian, in the test with OVCAR-8 ovarian, in the test with PC-3 prostate, in the test on SNB-19 CNS, with A549 NSCLC and with T-47D breast was greater than 100 µM throughout.

Consider `COc1ccc2oc(=Nc3ccccc3)c(C(N)=O)cc2c1`, for which the TGI in the test with OVCAR-5 ovarian, in the test with SW-620 colon, in the test with EKVX NSCLC, with K-562 leukemia, in the test on RXF 393 renal and in the test on NCI-H23 lung was greater than 100 µM each time. Besides, the TGI is greater than 87.6 µM in the test with TK-10 renal; greater than 100 µM with HL-60(TB) leukemia; greater than 100 µM in the test on NCI-H460 lung; 98.4 µM in the test with HOP-62 NSCLC; greater than 100 µM in the test with BT-549 breast; greater than 100 µM with NCI/ADR-RES ovarian. Moreover, the TGI in the test on HOP-92 NSCLC is greater than 100 µM; in the test with OVCAR-8 ovarian it was greater than 100 µM; with PC-3 prostate, greater than 100 µM; in the test on SNB-19 CNS it was greater than 45.1 µM; with A549 NSCLC, greater than 100 µM; in the test with T-47D breast, greater than 100 µM.

In the case of `CCOC(=O)CCC(NC(=O)OCc1ccccc1)C(=O)NC(CCC(=O)OCC)C(=O)NC(Cc1ccc([N+](=O)[O-])cc1)C(=O)NC(CCC(=O)OCC)C(=O)NC(CCC(=O)OCC)C(=O)OCC` (centres undefined) (Cbz-E(OEt)E(OEt)[Phe(4-NO2)]E(OEt)E(OEt)-OEt; configuration not given here), the TGI with OVCAR-5 ovarian, in the test with SW-620 colon, in the test with EKVX NSCLC, in the test on UACC-62 melanoma, with RXF 393 renal and in the test with NCI-H23 lung was greater than 100 µM each time. Also, the TGI with TK-10 renal, with NCI-H460 lung, with HOP-62 NSCLC, in the test with BT-549 breast, with NCI/ADR-RES ovarian and with OVCAR-8 ovarian was greater than 100 µM throughout. The TGI in the test with PC-3 prostate, in the test on SNB-19 CNS, with A549 NSCLC and in the test on T-47D breast was greater than 100 µM in each case.

For the compound `CC1=C(C)CC(C#N)(C#N)C(C#N)(C#N)C1`, the TGI with OVCAR-5 ovarian is greater than 10 µM; with SW-620 colon, greater than 5.42 µM; with EKVX NSCLC, greater than 10 µM; in the test on UACC-62 melanoma it was greater than 10 µM; with K-562 leukemia, 9.98 µM; with RXF 393 renal it was greater than 6.09 µM. The TGI with NCI-H23 lung is greater than 6.63 µM; in the test with TK-10 renal, greater than 8.75 µM; with HL-60(TB) leukemia, greater than 5 µM; in the test with NCI-H460 lung it was greater than 10 µM; with HOP-62 NSCLC, greater than 10 µM; with NCI/ADR-RES ovarian, greater than 10 µM. Moreover, the TGI was greater than 6.48 µM in the test on HOP-92 NSCLC; greater than 10 µM in the test on A498 renal; greater than 9.66 µM in the test with OVCAR-8 ovarian; greater than 10 µM in the test with PC-3 prostate; greater than 10 µM with SNB-19 CNS; greater than 10 µM with A549 NSCLC. In the test on T-47D breast, this compound displayed a TGI of 9.9 µM.

Regarding `CC1=[N+]([O-])C(C)(C)N(N=O)C1(C)C`, the TGI in the test with OVCAR-5 ovarian, with SW-620 colon, in the test with EKVX NSCLC, in the test on K-562 leukemia, in the test with RXF 393 renal and in the test on NCI-H23 lung was greater than 10 µM in each case. The TGI in the test on TK-10 renal, with HL-60(TB) leukemia, with NCI-H460 lung, in the test on HOP-62 NSCLC, with BT-549 breast and with NCI/ADR-RES ovarian was greater than 10 µM in each case. Also, the TGI in the test on HOP-92 NSCLC, in the test on OVCAR-8 ovarian, in the test with PC-3 prostate, in the test with SNB-19 CNS, in the test with A549 NSCLC and with T-47D breast was greater than 10 µM in each case.
